In the supplement of paper PMC10702517:
± gives the standard deviation.

Assays:
[1] = chemical recovery by SPE of plasma after PDMS sampling; higher = better extraction; details: pooled human plasma, extraction method: HLB SPE of plasma after PES
[2] = chemical recovery from spiked human plasma; higher = better extraction; details: pooled human plasma
[3] = extraction method: PES+SPE (3 d PDMS equilibration then HLB SPE)
[4] = extraction method: SPE only (HLB 96-well)
[5] = extraction method: SPE only (HLB 96-well), PES comparison experiment
[6] = extraction method: solvent precipitation (ACN + hexane)
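Wherever chemical recovery by SPE of plasma after PDMS sampling is given: over 400 spiked chemicals quantified by LC-HRMS or GC-HRMS via internal standard calibration, recovery relative to spike mix added to unspiked plasma extract to correct matrix effects.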

Row | Compound | chemical recovery by SPE of plasma ([1]; equilibration time (d): 1) [%] | chemical recovery by SPE of plasma ([1]; equilibration time (d): 3) [%] | chemical recovery by SPE of plasma ([1]; equilibration time (d): 6) [%] | chemical recovery [2, 3] [%] | chemical recovery [2, 4] [%] | chemical recovery [2, 5] [%] | chemical recovery [2, 6] [%]
1 | CC[C@H]1OC(=O)[C@H](C)[C@@H](O[C@H]2C[C@@](C)(OC)[C@@H](O)[C@H](C)O2)[C@H](C)[C@@H](O[C@@H]2O[C@H](C)C[C@H](N(C)C)[C@H]2O)[C@](C)(O)C[C@@H](C)C(=O)[C@H](C)[C@@H](O)[C@]1(C)O [Erythromycin] |  | 11.9 ± 6.8 | 6.49 ± 3.8 | 4.25 ± 0.61 | 10.9 ± 8.2 | 3.18 ± 1.2 | 66 ± 3.4
2 | COc1cc([C@@H]2c3cc4c(cc3[C@@H](O[C@@H]3O[C@@H]5CO[C@@H](C)O[C@H]5[C@H](O)[C@H]3O)[C@H]3COC(=O)[C@H]23)OCO4)cc(OC)c1O [Etoposide] | 36.8 ± 3.4 | 40.9 ± 6.5 | 38.4 ± 0.53 | 54.9 ± 4.7 |  |  | 35.5 ± 10
3 | C[C@@H]1C[C@H]2[C@@H]3C[C@H](F)C4=CC(=O)C=C[C@]4(C)[C@@]3(F)[C@@H](O)C[C@]2(C)[C@@]1(O)C(=O)CO [Flumethasone] | 46.8 ± 5.2 | 51.4 ± 1.9 | 44.3 ± 2.9 |  |  | 47.9 ± 6.4 | 
4 | NCC1(CC(=O)O)CCCCC1 [Gabapentin] |  |  | 0.00483 ± 0.0084 |  | 14.7 ± 7.2 | 0.0969 ± 0.19 | 
5 | COc1ccc(Cl)cc1C(=O)NCCc1ccc(S(=O)(=O)NC(=O)NC2CCCCC2)cc1 [Glibenclamide] |  | 43.4 ± 2.1 | 38 ± 3.8 |  |  | 42.1 ± 7 | 74.9 ± 2.6
6 | CCC1=C(C)CN(C(=O)NCCc2ccc(S(=O)(=O)NC(=O)NC3CCC(C)CC3)cc2)C1=O (stereo not drawn) [Glimepiride] | 46.6 ± 3.4 | 45.2 ± 1.8 | 42.1 ± 3 | 36.8 ± 4.8 | 32 ± 1.9 | 42.6 ± 4.8 | 71.4 ± 5.3
7 | NC(=O)N=C(N)N [Guanylurea] | 0.503 ± 1.2 | 0.581 ± 0.1 | 0.912 ± 0.18 |  |  | 1.06 ± 1.4 | 
8 | CCCCc1nc(Cl)c(CO)n1Cc1ccc(-c2ccccc2-c2nnn[nH]2)cc1 [Losartan] | 44.8 ± 3.8 | 50.8 ± 2.6 | 46.7 ± 1.6 | 44.5 ± 4.3 | 41.2 ± 2.9 | 40.8 ± 7.5 | 77.2 ± 3.6
9 | CCN(CCCCOC(=O)c1ccc(OC)c(OC)c1)C(C)Cc1ccc(OC)cc1 (stereo not drawn) [Mebeverine] | 0.287 ± 0.15 | 0.295 ± 0.096 | 0.145 ± 0.0059 |  |  | 38.1 ± 4.5 | 69.6 ± 4.1
10 | Cn1ccnc1S [Methimazol] | 0.224 ± 0.23 | 0.612 ± 0.32 | 0.886 ± 0.81 | 0.467 ± 0.11 | 0.483 ± 0.27 | 0.192 ± 0.098 | 44.8 ± 6.5
11 | COc1c(C)c2c(c(O)c1C/C=C(\C)CCC(=O)O)C(=O)OC2 [Mycophenolic acid] | 48.6 ± 4.3 | 53 ± 2.7 | 46.3 ± 2 | 44.01 ± 0.38 | 45.5 ± 3.8 | 53.5 ± 4.5 | 70.9 ± 5.3
12 | CCCCCCCCCCCC[N+](C)(C)[O-] [N,N-Dimethyldodecylamine N-oxide] | 23.5 ± 3.5 | 17.7 ± 3 | 9.46 ± 8.3 |  | 55.1 ± 13 | 43.2 ± 7.2 | 

Continued, values first:

Row | chemical recovery by SPE of plasma ([1]; equilibration time (d): 1) [%] | chemical recovery by SPE of plasma ([1]; equilibration time (d): 3) [%] | chemical recovery by SPE of plasma ([1]; equilibration time (d): 6) [%] | chemical recovery [2, 3] [%] | chemical recovery [2, 4] [%] | chemical recovery [2, 5] [%] | chemical recovery [2, 6] [%] | Compound
13 | 43.2 ± 7.6 | 47 ± 2.3 | 44.9 ± 4.6 | 42.2 ± 3.9 | 36.2 ± 1.4 | 37.8 ± 5.6 | 70.5 ± 3.8 | CCOC(=O)[C@H](CCc1ccccc1)N[C@@H](C)C(=O)N1CCC[C@H]1C(=O)O [Enalapril]
14 | 55.5 ± 12 | 70.9 ± 4.3 | 66.2 ± 5.9 | 44.9 ± 5.1 | 48.4 ± 7.2 | 50 ± 6.5 | 69.3 ± 6.1 | NS(=O)(=O)c1cc(C(=O)O)c(NCc2ccco2)cc1Cl [Furosemide]
15 | 46.2 ± 7.8 | 50 ± 4.5 | 47 ± 3.7 | 55.5 ± 1.2 | 49.1 ± 3.9 | 46.4 ± 4 | 48.3 ± 10 | O=c1c(-c2ccc(O)cc2)coc2cc(O)cc(O)c12 [Genistein]
16 |  | 41.1 ± 4.4 | 35.8 ± 3.6 | 33.6 ± 5.2 | 33.3 ± 1.8 | 31 ± 6 |  | COc1ccc2c(c1)c(CC(=O)O)c(C)n2C(=O)c1ccc(Cl)cc1 [Indometacin]
17 | 47.5 ± 5.5 | 54 ± 2.6 | 48.2 ± 2.2 | 56.1 ± 6 | 46.1 ± 2.4 | 53.1 ± 4.2 | 68.4 ± 3.2 | CC(C(=O)O)c1cccc(C(=O)c2ccccc2)c1 (stereo not drawn) [Ketoprofen]
18 | 46.4 ± 3.9 | 50.6 ± 3.4 | 44.8 ± 2.3 | 47.4 ± 3.7 | 55.6 ± 8.6 | 51.3 ± 4.4 | 70.5 ± 3.8 | CC(CCc1ccccc1)NCC(O)c1ccc(O)c(C(N)=O)c1 (stereo not drawn) [Labetalol]
19 | 3.98 ± 0.26 | 3.93 ± 0.72 | 2.64 ± 0.097 |  |  | 50.8 ± 7.4 | 73.1 ± 3.5 | CN(C)C(=O)C(CCN1CCC(O)(c2ccc(Cl)cc2)CC1)(c1ccccc1)c1ccccc1 [Loperamide]
20 | 14.9 ± 5 | 16.4 ± 0.37 | 14.5 ± 3 | 60.9 ± 5.4 | 45 ± 7.8 | 15.7 ± 2.9 | 54.2 ± 2.1 | Cc1cccc(Nc2ccccc2C(=O)O)c1C [Mefenamic acid]
21 | 42 ± 6 | 49.95 ± 0.36 | 46.4 ± 4.8 |  |  | 37.9 ± 3.8 |  | Cc1cccc(C(=O)O)c1N(Cn1cccn1)C(=O)C(=O)O [Metazachlor BH479-12]
22 | 54.5 ± 12 | 57.9 ± 5 | 54.7 ± 7.3 |  | 48.2 ± 5.2 | 47.4 ± 4.1 | 81 ± 4.5 | Cc1cccc(C)c1N(Cn1cccn1)C(=O)C[S+]([O-])CC(=O)O (stereo not drawn) [Metazachlor BH 479-9]
23 | 44.3 ± 5.8 | 50.6 ± 2.1 | 43.4 ± 3 |  | 97.9 ± 4.8 |  |  | Cc1cccc(C)c1N(Cn1cccn1)C(=O)CS(=O)(=O)O [Metazachlor ESA]
24 |  | 54.2 ± 4.1 | 47.4 ± 3 |  |  | 41 ± 6 |  | CCc1cccc(C)c1N(C(=O)C(=O)O)C(C)C(=O)O (stereo not drawn) [Metolachlor CGA 357-704]
25 | 37.9 ± 8.1 | 46.1 ± 2.7 | 43.1 ± 7.2 |  |  | 47.9 ± 5.2 |  | CCc1cccc(C)c1NC(=O)CS(=O)(=O)O [Metolachlor CGA 368-208]
26 | 38.9 ± 5.3 | 42.9 ± 5.7 | 39.7 ± 6.8 | 0.65 ± 0.11 | 33.2 ± 2.9 | 46.9 ± 4 | 69.1 ± 3.4 | CCc1cccc(C)c1N(C(=O)CS(=O)(=O)O)C(C)COC (stereo not drawn) [Metolachlor ESA]
27 | 56.2 ± 8.4 | 61.6 ± 4.1 | 55.1 ± 4.2 |  |  | 58.9 ± 4.9 |  | CC(=O)Nc1ccc(O)c(C(=O)O)c1 [N-Acetyl mesalazine]
28 | 11.4 ± 0.85 | 17.5 ± 1.5 | 11.5 ± 1.4 | 45.4 ± 6.6 | 48.7 ± 6.1 |  |  | CCCCNS(=O)(=O)c1ccccc1 [N-Butylbenzenesulfonamide]
